In brackets after ≈: the same amount, converted by molar mass.
How the values were obtained:
Assay type in all cases: functional
[1] = tested on: Staphylococcus epidermidis; test: Antibacterial activity against methicillin-resistant Staphylococcus epidermidis assessed as zone of inhibition at 800 ng/mL after 24 hrs by agar disc diffusion method; settings: read-out: IZ
[2] = tested on: Staphylococcus epidermidis; test: Antibacterial activity against methicillin-resistant Staphylococcus epidermidis assessed as zone of inhibition at 400 ng/mL after 24 hrs by agar disc diffusion method; settings: read-out: IZ
[3] = tested on: Staphylococcus haemolyticus; test: Antibacterial activity against methicillin-resistant Staphylococcus haemolyticus after overnight incubation by micro broth dilution analysis
[4] = tested on: Staphylococcus aureus; test: Antibacterial activity against methicillin-resistant Staphylococcus aureus assessed as zone of inhibition at 50 ug/mL after 24 hrs by agar disc diffusion method; settings: read-out: IZ
[5] = tested on: Staphylococcus aureus; test: Antibacterial activity against methicillin-resistant Staphylococcus aureus assessed as zone of inhibition at 200 ng/mL after 24 hrs by agar disc diffusion method; settings: read-out: IZ
[6] = tested on: Staphylococcus epidermidis; test: Antibacterial activity against methicillin-resistant Staphylococcus epidermidis assessed as zone of inhibition at 20 ug/mL after 24 hrs by agar disc diffusion method; settings: read-out: IZ
[7] = tested on: Staphylococcus epidermidis; test: Antibacterial activity against methicillin-resistant Staphylococcus epidermidis after overnight incubation by micro broth dilution analysis
[8] = tested on: Staphylococcus aureus; test: Antibacterial activity against methicillin-resistant Staphylococcus aureus assessed as zone of inhibition at 400 ng/mL after 24 hrs by agar disc diffusion method; settings: read-out: IZ
[9] = tested on: Staphylococcus epidermidis; test: Antibacterial activity against methicillin-resistant Staphylococcus epidermidis assessed as zone of inhibition at 200 ng/mL after 24 hrs by agar disc diffusion method; settings: read-out: IZ
[10] = tested on: Staphylococcus aureus; test: Antibacterial activity against methicillin-resistant Staphylococcus aureus after overnight incubation by micro broth dilution analysis
[11] = tested on: Staphylococcus aureus; test: Antibacterial activity against methicillin-resistant Staphylococcus aureus assessed as zone of inhibition at 800 ng/mL after 24 hrs by agar disc diffusion method; settings: read-out: IZ
[12] = tested on: Staphylococcus haemolyticus; test: Antibacterial activity against methicillin-resistant Staphylococcus haemolyticus assessed as zone of inhibition at 50 ug/mL after 24 hrs by agar disc diffusion method; settings: read-out: IZ
[13] = tested on: Staphylococcus haemolyticus; test: Antibacterial activity against methicillin-resistant Staphylococcus haemolyticus assessed as zone of inhibition at 200 ng/mL after 24 hrs by agar disc diffusion method; settings: read-out: IZ
[14] = tested on: Staphylococcus haemolyticus; test: Antibacterial activity against methicillin-resistant Staphylococcus haemolyticus assessed as zone of inhibition at 800 ng/mL after 24 hrs by agar disc diffusion method; settings: read-out: IZ
[15] = tested on: Staphylococcus haemolyticus; test: Antibacterial activity against methicillin-resistant Staphylococcus haemolyticus assessed as zone of inhibition at 400 ng/mL after 24 hrs by agar disc diffusion method; settings: read-out: IZ

Row | SMILES | zone of inhibition at 0.8 µg/mL [1] | zone of inhibition at 0.4 µg/mL [2] | MIC99 [3] | zone of inhibition at 50 µg/mL [4] | zone of inhibition at 0.2 µg/mL [5] | zone of inhibition at 20 µg/mL [6] | MIC99 [7] | zone of inhibition at 0.4 µg/mL [8] | zone of inhibition at 0.2 µg/mL [9] | MIC99 [10] | zone of inhibition at 0.8 µg/mL [11] | zone of inhibition at 50 µg/mL [12] | zone of inhibition at 0.2 µg/mL [13] | zone of inhibition at 0.8 µg/mL [14] | zone of inhibition at 0.4 µg/mL [15]
1 | O=S(=O)(F)/C=C/c1ccc(C(F)(F)F)cc1 | 11.4 mm | 10.1 mm | 60.2 µg/mL (≈ 237 µM) | 9.1 mm | 6.2 mm | 12.1 mm | 0.812 µg/mL (≈ 3.19 µM) | 10.1 mm | 9.1 mm | 0.815 µg/mL (≈ 3.21 µM) | 15.1 mm | 3.5 mm | – | – | –
2 | O=S(=O)(F)/C=C/c1cc(C(F)(F)F)cc(C(F)(F)F)c1 | – | – | 18.1 µg/mL (≈ 56.3 µM) | 14.4 mm | 6.2 mm | 6.5 mm | 60.2 µg/mL (≈ 187 µM) | 7.1 mm | – | 0.814 µg/mL (≈ 2.53 µM) | 10.3 mm | 7.1 mm | 0 mm | 4.2 mm | 3.1 mm
3 | O=S(=O)(F)/C=C/c1cc2ccccc2s1 | – | – | 63.1 µg/mL (≈ 261 µM) | 8.2 mm | 4.4 mm | 5.2 mm | 70.2 µg/mL (≈ 290 µM) | 6.3 mm | – | 55 µg/mL (≈ 227 µM) | 8.5 mm | 4.5 mm | – | – | –
4 | O=S(=O)(F)/C=C/c1cccc(C(F)(F)F)c1 | – | – | 43.2 µg/mL (≈ 170 µM) | 10.1 mm | 4.1 mm | 4.1 mm | 40.1 µg/mL (≈ 158 µM) | 5.4 mm | – | 0.836 µg/mL (≈ 3.29 µM) | 7.7 mm | 4.2 mm | – | – | –
5 | O=S(=O)(F)/C=C/c1ccc(OC(F)(F)F)cc1 | 10.4 mm | 8.3 mm | 61.2 µg/mL (≈ 227 µM) | 6.1 mm | – | 17.6 mm | 0.81 µg/mL (≈ 3 µM) | – | 7.1 mm | 40.2 µg/mL (≈ 149 µM) | – | 4.3 mm | – | – | –
6 | O=S(=O)(F)/C=C/c1cccc2c1sc1ccccc12 | – | – | 66 µg/mL (≈ 226 µM) | 8.1 mm | 3.5 mm | 4.1 mm | 55 µg/mL (≈ 188 µM) | 4.4 mm | – | 48.2 µg/mL (≈ 165 µM) | 4.5 mm | 4.5 mm | – | – | –
7 | Cc1ccc(/C=C/S(=O)(=O)F)c(C)c1 | 11.1 mm | 6.2 mm | 43.3 µg/mL (≈ 202 µM) | 6.5 mm | – | 10.7 mm | 0.813 µg/mL (≈ 3.79 µM) | – | 2.5 mm | 43.1 µg/mL (≈ 201 µM) | – | 3.5 mm | – | – | –
8 | CC(=O)c1ccccc1/C=C/S(=O)(=O)F | 10.5 mm | 4.2 mm | 50.2 µg/mL (≈ 220 µM) | 8.2 mm | 3.5 mm | 10.2 mm | 0.816 µg/mL (≈ 3.58 µM) | 4.1 mm | 3.3 mm | 16.1 µg/mL (≈ 70.7 µM) | 5.4 mm | 4.1 mm | – | – | –
9 | O=S(=O)(F)/C=C/C=C/c1cccc(C(F)(F)F)c1 | 8.5 mm | 7.1 mm | 55 µg/mL (≈ 196 µM) | 6.2 mm | – | 8.5 mm | 0.822 µg/mL (≈ 2.93 µM) | – | 6.2 mm | 44.1 µg/mL (≈ 157 µM) | – | 4.5 mm | – | – | –
10 | O=S(=O)(F)/C=C/c1cccc(F)c1 | – | – | 44.1 µg/mL (≈ 216 µM) | 9.1 mm | 3.5 mm | 3.5 mm | 72.3 µg/mL (≈ 354 µM) | 4.4 mm | – | 15.2 µg/mL (≈ 74.3 µM) | 5.1 mm | 4.2 mm | – | – | –
11 | Cc1ccccc1/C=C/S(=O)(=O)F | 4.5 mm | 3.4 mm | 54.1 µg/mL (≈ 270 µM) | 15.4 mm | 4.2 mm | 15.3 mm | 17.2 µg/mL (≈ 85.8 µM) | 5.1 mm | 2.2 mm | 0.849 µg/mL (≈ 4.24 µM) | 6.4 mm | 5.4 mm | – | – | –
12 | COc1cc(/C=C/C=C/S(=O)(=O)F)cc(OC)c1 | – | – | 56.6 µg/mL (≈ 208 µM) | 16.1 mm | 5.2 mm | 4.1 mm | 57.1 µg/mL (≈ 210 µM) | 7.1 mm | – | 61.1 µg/mL (≈ 225 µM) | 8.5 mm | 4.2 mm | – | – | –

— ChEMBL document CHEMBL4382233, “Discovery of novel arylethenesulfonyl fluorides as potential candidates against methicillin-resistant of Staphylococcus aureus (MRSA) for overcoming multidrug resistance of bacterial infections” (2019)
